Measured values from paper PMC9142922, “Galactosylated Prodrugs: A Strategy to Improve the Profile of Nonsteroidal Anti-Inflammatory Drugs” (Pharmaceuticals, 2022).
≈ marks a conversion by molar mass, not a printed value. Where two headings read alike, the source gives them in different places. Marks after values point to notes of the source that are not given here.

How the values were obtained:
[1] = Distribution coefficient n-octanol/PBS pH 7.4, shake-flask; assay type: physicochemical; conditions: room temperature, mean ± SD
Source text: Lipophilicity is the key physicochemical parameter that influences solubility and various other aspects of the pharmacokinetic and pharmacodynamic profile of drugs. The hydrophilic-lipophilic behavior of galactosylated prodrugs and parent drugs was investigated by measuring the distribution coefficients (log D^pH) in n-octanol-phosphate buffered saline (PBS, pH 7.4) using the shake-flask technique.
Each log D value is an average of a minimum of six measurements.

[2] = Stability in human serum at 37 °C; conditions: for degradation in human serum in 24 h / Stability at 37 °C, % compound after 24 h of incubation, Human Serum: 37 °C; for half-life at 200 µM: male, human; for Stability at 37 °C, % compound after 24 h of incubation, Human Serum: unmodified incubated compound, 200 µM, mean ± SD
Experimental: A solution of each compound (10 mM in DMSO) was added to human serum (sterile-filtered from human male AB plasma, USA origin, sterile-filtered, Sigma-Aldrich) and preheated and maintained at 37 °C ± 0.5 °C. Three-hundred microliters of the resulting solutions (200 µM) was withdrawn at appropriate time intervals and added to 300 µL of CH3CN, which contained 0.1% TFA, in order to deproteinize the serum. […] Each clear supernatant was filtered using 0.45 µm PTFE filters (VWR International S.r.l., Milano, Italy) and analyzed via RP-HPLC as described below.
The reverse-phase HPLC procedure allowed the galactosylated prodrugs and their parent drugs to be separated and quantified. […] The analytical column was a ZORBAX Eclipse XDB-C8 (150 × 4.6 mm, 5 µm; Agilent, Santa Clara, CA, USA). The mobile phase consisted of 0.1% aqueous TFA and 0.1% TFA CH3CN 50/50 w/w% at a flow rate of 1.0 mL/min. The injection volume was 20 µL (Rheodyne, Cotati, CA, USA). The column effluent was monitored at 228 nm and 254 nm, referenced against an 800 nm wavelength. The quantitation of compounds was calculated using calibration curves and the linearity of the calibration curves was determined in a concentration range of 1–100 µM (r^2 > 0.99).

[3] = test system: acetic-acid-induced writhing in mice; assay: Acetic-acid-induced writhing test; assay type: in vivo, CD1 mice; conditions: oral IbuGAL 17.8, IndoGAL 14.5, OkyGAL 16.4, FluGAL 16.7 mg/kg; 0.6% acetic acid i.p.; 48 h
Experimental: The number of acetic-acid-induced abdominal stretches can be evaluated in Figure 3. Control mice received an intraperitoneal injection of 0.6% acetic acid (10 mL/kg). […]
Figure 5 (a–d). Total number of writhing episodes within 20 min after acetic acid injection. […] Data are expressed as means ± S.E.M. of 6 animals. *** p < 0.001, ** p < 0.01 vs. Control.
The acetic-acid-induced writhing test was performed as reported previously. […] The number of abdominal constrictions and extensions of the trunk and hind limbs were counted for each group of mice, starting from 5 min after the injection of acetic acid up to 20 min afterwards, and expressed as the number of writhing episodes.

[4] = Chemical stability in SGF (pH 1.2) and PBS (pH 7.4) at 37 °C; assay type: physicochemical; conditions: unmodified incubated compound, 100 µM, PBS pH 7.4, 37 °C, mean ± SD
Experimental: The concentrations of the galactosylated prodrugs and the parent drugs derived from the prodrugs were quantified using RP-HPLC (Table 2).
A 10 mM solution of each compound (the galactosylated prodrugs and their parent drugs) was added to either simulated gastric fluid (SGF-without pepsin) or phosphate-buffered saline (PBS, 50 mM). The SGF and PBS buffers were prepared as previously described.

[5] = test system: carrageenan-induced paw edema in mice; assay: Carrageenan-induced paw edema / hyperalgesia; assay type: in vivo, CD1 mice; conditions: oral; parent drugs 10 mg/kg, equimolecular IbuGAL 17.8, IndoGAL 14.5, OkyGAL 16.4, FluGAL 16.7 mg/kg
Experimental: We tested the anti-inflammatory response of the parent drugs and their relative galactosylated prodrugs by subcutaneously injecting λ-carrageenan (1% (w/v) in sterile saline, 20 μL) into the hind paws of mice.
Figure 4 (a–d). […] White circles represent control mice treated with vehicle. […] The increase in paw volume was evaluated and is expressed as the difference in paw volume measured at each time point and the basal paw volume measured immediately before carrageenan injection. Data are expressed as means ± S.E.M. of 6 animals. *** p < 0.001, ** p < 0.01 and […] vs. Control.
Carrageenan-induced paw edema was induced by injecting λ-carrageenan (1% w/v in sterile water, 20 μL) subcutaneously into the hind paws of mice using a 27 gauge needle. […] The increase in paw volume was evaluated using a plethysmometer (Ugo Basile, Milan, Italy) and reported as the difference between the paw volume measured at each time point and the basal paw volume measured immediately before carrageenan injection.

[6] = Serum protein binding by ultrafiltration; assay type: in vitro ADME; conditions: male, human serum, 1 h at 37 °C, mean ± SD, read-out: Serum Protein Binding % Bound (converted)
Experimental: The serum protein binding properties of the galactosylated prodrugs and parent drugs were investigated using ultrafiltration. The compounds were incubated in human serum, and after 1 h, the concentrations of the compounds in the ultrafiltrate and the original serum were determined by means of RP-HPLC, and used to calculate the binding percentages, which are reported in Table 2.
Free- and protein-bound drug separation was obtained via ultrafiltration using commercially available membrane systems (Centrifree ultrafiltration devices with ultracel YM-T membrane, Merck, KGaA, Darmstadt, Germany). […] One milliliter of the solution was inserted into the sample reservoir of the ultrafiltration device and gently shaken in an orbital shaker for 1 h at 37 °C. […] The concentration of the compound both in the ultrafiltrate and filtrate was analyzed via RP-HPLC under the chromatographic conditions described above and using the calibration curves of standard solutions. […] The recovery of the ultrafiltration process was calculated to observe any possible compound loss during the operations in view of the limited solubility of the tested compounds.

[7] = test system: NSAID-induced gastric damage in mice; assay: Ulcerogenicity study (gastric lesion score); assay type: in vivo, CD1 mice; conditions: fasted mice, oral, parent 10 mg/kg or equimolecular prodrug, score 0 irritation, 1 lesions 1-2 mm, 2 lesions 2-3 mm, 3 lesions >3 mm; for Gastric Lesion Score (4 h): 4 h after treatment; for Gastric Lesion Score (48 h): 48 h after treatment
Experimental: NSAID-induced gastric damage in mice was evaluated following the procedure described by Chan et al.. […] The mucosa was then examined by means of a magnifying glass for the presence of irritation or frank hemorrhagic lesions (ulcers). Irritation was assigned a score of 0, and ulcerations were scored according to their length (a score of 1 for lesions with a length between 1 and 2 mm, a score of 2 for lesions with a length between 2 and 3 mm, a score of 3 for lesions greater than 3 mm). The sum of total scores was used for comparison.

[8] = Solubility assay at 25 °C (RP-HPLC); assay type: physicochemical; conditions: thermodynamic from solid
Experimental: The solubilities of the prodrugs and parent drugs were evaluated at 25 °C in water, simulated gastric fluid (SGF without pepsin, pH 1.2) and PBS (pH 7.4), which are the media used for chemical stability analyses. The solubilities were quantified using RP-HPLC.
Solubility was assessed in deionized water, SGF without pepsin (pH 1.2) and PBS (pH 7.4, 50 mM). The test solid compounds (5 mg) were added to 1 mL of water, PBS and SGF in glass tubes and shaken for 6 h at 25 °C. The suspensions were filtered through a PTFE 0.45 μm filter (VWR), and the resulting solutions were analyzed by means of RP-HPLC (see below). Experiments were performed in triplicate for each compound. Solubility is expressed as mM concentration.

[9] = aqueous buffer, PBS pH 7.4 50 mM, 25 °C, read-out: Solubility at 25 °C, PBS pH 7.4
[10] = simulated gastric fluid, SGF without pepsin pH 1.2, 25 °C, LOQ (HPLC) = 1 µM, read-out: Solubility at 25 °C, SGF pH 1.2
[11] = deionized water, 6 h shaking, 25 °C, mean, SD < 0.01, read-out: Solubility at 25 °C, Water

| logD [1] | degradation in human serum in 24 h [2] [%] | half-life at 200 µM [2] [h] | Stability at 37 °C, % compound after 24 h of incubation, Human Serum [2] [%] | Stability at 37 °C, % compound after 24 h of incubation, PBS pH 7.4 [4] [%] | fraction unbound at 1 h, 100 µM [6] | solubility at 6 h [8, 9] [µM] | solubility at 6 h [8, 10] [µM] | solubility at 6 h [8, 11] [µM] | SMILES | writhing responses after 48 h vs control [3] | effect on carrageenan-induced paw edema/hyperalgesia during the first phase (0–6 h) [5] | Gastric Lesion Score (4 h) [7] | Gastric Lesion Score (48 h) [7] |
| --- | --- | --- | --- | --- | --- | --- | --- | --- | --- | --- | --- | --- | --- |
| 1.89 ± 0.09 | ~50 | ~24 | 57.3 ± 1.4 | 87.3 ± 2.1 | 0.039 | 1010 (≈ 410 µg/mL) | 1440 (≈ 585 µg/mL) | 5210 (≈ 2120 µg/mL) | CC(C(=O)OC[C@H]1OC(O)[C@H](O)[C@@H](O)[C@H]1O)c1ccc(-c2ccccc2)c(F)c1 (some centres unmarked) [FluGAL] | significant decrease | did not change | 0 ** | 0.5 |
| 1.73 ± 0.04 | ~50 | ~24 | 54.1 ± 2.2 | 81.2 ± 2.5 | 0.028 | 2930 (≈ 1080 µg/mL) | 2530 (≈ 932 µg/mL) | 1940 (≈ 715 µg/mL) | CC(C)Cc1ccc(C(C)C(=O)OC[C@H]2OC(O)[C@H](O)[C@@H](O)[C@H]2O)cc1 (some centres unmarked) [IbuGAL] | significant decrease | did not change | 0 ** | 1 |
